From US20090004185A1, “AMINO-SUBSTITUTED QUINAZOLINE DERIVATIVES AS INHIBITORS OF BETA-CATENIN/TCF-4 PATHWAY AND CANCER TREATMENT AGENTS” (WYETH, priority 2007, published 2009)

Legend:
β-catenin/Tcf-4 = experiment: cells; type: cell-based; details: Homo sapiens, 24 hours of incubation with compound, ratio Firefly/Renilla luciferase
Description: Background cell line: SW480 colorectal carcinoma DNA constructs:
1) Tcf-4-Luc: Tcf-4 binding sites driving Firefly Luciferase in the pGL3 vector—to measure the activity of β-catenin/Tcf-4;
(§1) 2) SV40-Luc: SV40 binding site driving Firefly Luciferase in the pGL3 vector—as a control for non-specific inhibitors; and
(§2) 3) SV40-R-Luc: SV40 binding site driving Renilla Luciferase in the pGL3 vector—as an internal control for cell number and toxicity.
This screen uses 3 cell lines derived from SW480 and selected to contain the above luciferase reporters integrated into their chromosomes as follows: […]
(§3) Cells: Tcf22C11 and SV5A8 were grown in the presence of 500 μg/ml G418 and Tcf 33.13 was grown in the presence of 500 μg/ml G418+125 μg/ml Zeocin to maintain the integrated reporters. The cells were trypsinized and plated at 1×10^4 cells/well in opaque 96 well plates.
The compounds were diluted as follows: The compounds were stored frozen in dimethyl sulfoxide (DMSO) at […]. Compounds were initially titrated in DMSO to make a 1000×DMSO stock solution. Compounds were then diluted 1:25 into media/DMSO (DMEM+10% FBS+9% DMSO). Using the Biomek Multimek, the diluted compounds were mixed well and immediately added to the plated cells in a 1:40 dilution. The final concentration of DMSO in the assay plates was 0.316% DMSO.
(§4) Assay Readout: The luciferase signal was detected using a luciferase detection kit from Promega. Until December 2003, Promega's Dual-Luciferase® Reporter (DLR™) Assay System was used to detect luciferase activity. Briefly, after 24 hours of incubation with compound, culture media was removed by aspiration and 20 ul of passive lysis buffer (Promega) per well was added. The plates were shaken for 15 min. Firefly substrate was then added and the resulting luminescence was immediately read on a CCD camera imaging device or a luminometer. After quantifying the firefly luminescence, the reaction was quenched, and the Renilla luciferase reaction was initiated simultaneously by adding Stop & Glo® Reagent to the same sample. Renilla luciferase was then quantified using the CCD camera or luminometer.
Promega's Dual-Glo™ Luciferase Assay System can be used for luciferase detection. […] Briefly, after 24 hours of incubation with compound, culture media was removed by aspiration and 75 ul of fresh medium was added. Add 75 ul of Dual-Glo Luciferase Reagent (Promega) to each well and mix by shaking for 10 minutes on a plate shaker. Then, measure the firefly luminescence on a CCD camera imaging device or a luminometer. After quantifying the firefly luminescence, add 75 ul of Dual-Glo Stop & Glo Reagent (Promega) to each well and mix for 10 minutes. Renilla luciferase was then quantified using the CCD camera or luminometer.
(§5) This assay was meant to confirm primary leads and determine IC50s. Compounds were tested at titrated dilutions. The raw data for this assay was reported in protocol 2463-B. Protocol 2463-C contains the IC50 calculations based on the raw data. The data calculations were done as follows:
(§6) The data was expressed as % of control for both Firefly and Renilla Luciferase. The ratio of FF/Renilla (F/R) was then calculated and averaged between duplicate plates. The data was then plotted using LSW Data Analysis in Microsoft Excel. IC50s were determined by plotting the data in the LSW Data Analysis program using model 33. The IC50s (nM) for all three cell lines were reported.

SV40-Luc = SV40-Luc control luciferase reporter assay, SV 5A8 cell line (SV40-Luc and SV40-R-Luc), control for non-specific inhibitors; type: cell-based, human; details: Homo sapiens, SV5A8, 24 h, SV 5A8 cells derived from SW480; 24 hours of incubation with compound; ratio Firefly/Renilla luciferase
Description: Background cell line: SW480 colorectal carcinoma DNA constructs: […]
as §1, §2
This screen uses 3 cell lines derived from SW480 and selected to contain the above luciferase reporters integrated into their chromosomes as follows:
SV 5A8—SV40-Luc and SV40-R-Luc
as §3
Compounds: 20-24 hours after cell plating, compounds were added at titrated concentrations between […]. The compounds were diluted as follows: The compounds were stored frozen in dimethyl sulfoxide (DMSO) at […]. Compounds were initially titrated in DMSO to make a 1000×DMSO stock solution. Compounds were then diluted 1:25 into media/DMSO (DMEM+10% FBS+9% DMSO). Using the Biomek Multimek, the diluted compounds were mixed well and immediately added to the plated cells in a 1:40 dilution. The final concentration of DMSO in the assay plates was 0.316% DMSO.
as §4
Promega's Dual-Glo™ Luciferase Assay System can be used for luciferase detection. It was similar to the DLR Assay, however, unlike the DLR which has to be read immediately due to decaying signal, the signal in the Dual-Glo™ Luciferase Assay was stable for up to 2 hours. Briefly, after 24 hours of incubation with compound, culture media was removed by aspiration and 75 ul of fresh medium was added. Add 75 ul of Dual-Glo Luciferase Reagent (Promega) to each well and mix by shaking for 10 minutes on a plate shaker. Then, measure the firefly luminescence on a CCD camera imaging device or a luminometer. After quantifying the firefly luminescence, add 75 ul of Dual-Glo Stop & Glo Reagent (Promega) to each well and mix for 10 minutes. Renilla luciferase was then quantified using the CCD camera or luminometer.
as §5, §6

[1] = SW480, 24 h, Tcf 33.13 cells derived from SW480
[2] = Tcf22C11, 24 h, Tcf 22C11 cells derived from SW480

SMILES | IC50 (β-catenin/Tcf-4; [1]) | IC50 (β-catenin/Tcf-4; [2]) | IC50 (SV40-Luc)
CCN(CC)c1nc(NCc2ccc(NC(=O)c3ccc(F)cc3)cc2)c2ccccc2n1 [Example 122, N-[4-({[2-(diethylamino)quinazolin-4-yl]amino}methyl)phenyl]-4-fluorobenzamide] | 1260 nM | 2290 nM | > 11300 nM
Cc1ccc2c(NCc3ccc(NC(=O)C4CCN(Cc5ccc(Cl)nc5)CC4)cc3)nc(N(C)C)nc2c1 [Example 259, 1-[(6-chloropyridin-3-yl)methyl]-N-[4-({[2-(dimethylamino)-7-methylquinazolin-4-yl]amino}methyl)phenyl]piperidine-4-carboxamide] | 415 nM | 573 nM | > 8100 nM
CN1CCN(c2nc(NCc3ccc(NC(=O)c4ccc(F)cc4)cc3)c3ccccc3n2)CC1 [Example 116, 4-fluoro-N-[4-({[2-(4-methylpiperazin-1-yl)quinazolin-4-yl]amino}methyl)phenyl]benzamide] | 3040 nM | 3440 nM | > 21300 nM
Cc1ccc2c(NCc3ccc(NC(=O)C4CCN(Cc5ccccc5)CC4)cc3)nc(N(C)CCO)nc2c1 [Example 139, 1-benzyl-N-{4-[({2-[(2-hydroxyethyl)(methyl)amino]-7-methylquinazolin-4-yl}amino)methyl]phenyl}piperidine-4-carboxamide] | 1420 nM | 1460 nM | > 18600 nM
Cc1ccc2c(NCc3ccc(NC(=O)c4ccc(F)cc4)cc3)nc(N3CCN(C=O)CC3)nc2c1 [Example 217, 4-fluoro-N-[4-({[2-(4-formylpiperazin-1-yl)-7-methylquinazolin-4-yl]amino}methyl)phenyl]benzamide] | 3680 nM | 1860 nM | > 16300 nM
Cc1ccc2c(NCc3ccc(NC(=O)c4ccc(F)cc4)cc3)nc(N3CCN(Cc4ccc5c(c4)OCO5)CC3)nc2c1 [Example 215, N-{4-[({2-[4-(1,3-benzodioxol-5-ylmethyl)piperazin-1-yl]-7-methylquinazolin-4-yl}amino)methyl]phenyl}-4-fluorobenzamide] | 3190 nM | 1960 nM | > 12000 nM
Cc1ccc2nc(N3CCC3)nc(NCc3ccc(NC(=O)C4CCN(Cc5ccccc5)CC4)cc3)c2c1 [Example 84, N-(4-{[(2-azetidin-1-yl-6-methylquinazolin-4-yl)amino]methyl}phenyl)-1-benzylpiperidine-4-carboxamide] | 423 nM | 434 nM | > 9310 nM
Cc1ccc2nc(N(C)Cc3ccccn3)nc(NCc3ccc(NC(=O)c4ccc(F)cc4)cc3)c2c1 [Example 58, 4-fluoro-N-{4-[({6-methyl-2-[methyl(pyridin-2-ylmethyl)amino]quinazolin-4-yl}amino)methyl]phenyl}benzamide] | 2080 nM | 2500 nM | 4190 nM
CNc1nc(NCc2ccc(NC(=O)c3ccc(F)cc3Cl)cc2)c2cc(C)ccc2n1 [Example 28, 2-chloro-4-fluoro-N-[4-({[6-methyl-2-(methylamino)quinazolin-4-yl]amino}methyl)phenyl]benzamide] | 904 nM | > 1390 nM | > 1390 nM
CNc1nc(NCc2ccc(NC(=O)c3ccc(Br)cc3)cc2)c2cccc(C)c2n1 [Example 265, 4-bromo-N-[4-({[8-methyl-2-(methylamino)quinazolin-4-yl]amino}methyl)phenyl]benzamide] | 933 nM | 1140 nM | > 4230 nM
Cc1ccc2c(NCc3ccc(NC(=O)Nc4ccc(F)cc4)cc3)nc(N(C)C)nc2c1 [Example 180, N-[4-({[2-(dimethylamino)-7-methylquinazolin-4-yl]amino}methyl)phenyl]-N′-(4-fluorophenyl)urea] | 2020 nM | 1460 nM | > 5610 nM
CNc1nc(NCc2ccc(NC(=O)c3ccc(Cl)cc3)cc2)c2cc(C(F)(F)F)ccc2n1 [Example 167, 4-chloro-N-[4-({[2-(methylamino)-6-(trifluoromethyl)quinazolin-4-yl]amino}methyl)phenyl]benzamide] | 751 nM | 919 nM | > 5140 nM
Cc1ccc2c(NCc3ccc(NC(=O)C4CCN(Cc5cccc(F)c5)CC4)cc3)nc(N(C)C)nc2c1 [Example 261, N-[4-({[2-(dimethylamino)-7-methylquinazolin-4-yl]amino}methyl)phenyl]-1-(3-fluorobenzyl)piperidine-4-carboxamide] | 328 nM | 347 nM | > 4170 nM
Cc1ccc2nc(N3C[C@@H](C)N[C@@H](C)C3)nc(NCc3ccc(NC(=O)C4CCN(Cc5ccccc5)CC4)cc3)c2c1 [Example 78, 1-benzyl-N-{4-[({2-[(3R,5S)-3,5-dimethylpiperazin-1-yl]-6-methylquinazolin-4-yl}amino)methyl]phenyl}piperidine-4-carboxamide] | 955 nM | 1390 nM | > 17300 nM
Cc1ccc2nc(N3CCCCCC3)nc(NCc3ccc(NC(=O)c4ccc(F)cc4)cc3)c2c1 [Example 56, N-(4-{[(2-azepan-1-yl-6-methylquinazolin-4-yl)amino]methyl}phenyl)-4-fluorobenzamide] | 2010 nM | 1740 nM | > 5170 nM
CNc1nc(NCc2ccc(NC(=O)c3ccc(Cl)c(Cl)c3)cc2)c2cc(C)ccc2n1 [Example 37, 3,4-dichloro-N-[4-({[6-methyl-2-(methylamino)quinazolin-4-yl]amino}methyl)phenyl]benzamide] | 5280 nM | > 10700 nM | > 21400 nM
Cc1ccc2c(NCc3ccc(NC(=O)c4ccc(F)cc4)cc3)nc(N(C)Cc3ccccc3)nc2c1 [Example 203, N-{4-[({2-[benzyl(methyl)amino]-7-methylquinazolin-4-yl}amino)methyl]phenyl}-4-fluorobenzamide] | 579 nM | 590 nM | > 9890 nM
Cc1ccc2c(NCc3ccc(NC(=O)C4CCN(Cc5cc(F)ccc5F)CC4)cc3)nc(N(C)C)nc2c1 [Example 262, 1-(2,5-difluorobenzyl)-N-[4-({[2-(dimethylamino)-7-methylquinazolin-4-yl]amino}methyl)phenyl]piperidine-4-carboxamide] | 184 nM | 213 nM | > 4590 nM
CNc1nc(NCc2ccc(NC(=O)c3ccc(Cl)cc3Cl)cc2)c2ccccc2n1 [Example 16, 2,4-dichloro-N-[4-({[2-(methylamino)quinazolin-4-yl]amino}methyl)phenyl]benzamide] | 1820 nM | > 2760 nM | > 2760 nM
